According to US20230293526A1, “METHOD FOR TREATING CANCER WITH A REVERSE TRANSCRIPTASE INHIBITOR” (PrimeFour Therapeutics, Inc., priority 2020, published 2023):

Experiments:
Assay in all cases: Cell proliferation CellTiterGlo Ex.2
Assay type in all cases: cell-based
[1] = tested on: NCI-H1838; conditions: Homo sapiens; NCI-H1838 (Lung), 72 h
Protocol: (§1) A dose response relationship on cell proliferation was assessed for Compound 13 on 140 tumor cell lines. Briefly, compound treatment of cells started one day after seeding with a final DMSO concentration of 0.100, and was performed by nanodrop-dispensing using a Tecan Dispenser. 0.10% DMSO (solvent) and Staurosporine (10 μM) served as high control (10000 viability) and low control (000 viability), respectively. Compound 13 was tested at 10, 3, 1, 0.3, 0.1, 0.03, 0.01, and 0.003 μM.
(§2) Cells were cultured in the appropriate media. For the assays, cells were seeded in white cell culture-treated flat and clear bottom multiwell plates and incubated at 37° C. overnight before compound was added. After incubation for 72 h at 37° C. at 5% or 10% CO2 dependent on the medium, cell plates were equilibrated to room temperature for one hour, CellTiterGlo reagent (Promega) was added and luminescence was measured approximately an hour later using a luminometer.
(§3) Raw data were converted into percent cell viability relative to the high and low control, which were set to 10000 and 000, respectively.

[2] = tested on: OVK18; conditions: OVK18 (Ovary), 72 h
Protocol: as §1, §2, §3

[3] = tested on: SK-N-FI; conditions: Homo sapiens; SK-N-FI (Brain), 72 h
Protocol: as §1, §2, §3

[4] = tested on: LOVO; conditions: Homo sapiens; LOVO (Colon), 72 h
Protocol: as §1, §2, §3

[5] = tested on: Jurkat; conditions: Homo sapiens; Jurkat (Blood), 72 h
Protocol: as §1, §2, §3

[6] = tested on: RERF-LC-MS; conditions: RERF-LC-MS (Lung), 72 h
Protocol: as §1, §2, §3

[7] = tested on: A2780; conditions: Homo sapiens; A2780 (Ovary), 72 h
Protocol: as §1, §2, §3

[8] = tested on: RPMI 8226; conditions: Homo sapiens; RPMI 8226 (Blood), 72 h
Protocol: as §1, §2, §3

[9] = tested on: JVM-3; conditions: Homo sapiens; JVM-3 (Blood), 72 h
Protocol: as §1, §2, §3

[10] = tested on: MDA-MB-468; conditions: Homo sapiens; MDA-MB-468 (Breast), 72 h
Protocol: as §1, §2, §3

[11] = tested on: H2228; conditions: Homo sapiens, NCI-H2228; H2228 (Lung), 72 h
Protocol: as §1, §2, §3

[12] = tested on: Mia PaCA 2; conditions: Homo sapiens; Mia PaCA 2 (Pancreas), 72 h
Protocol: as §1, §2, §3

[13] = tested on: MOLT-4; conditions: Homo sapiens; MOLT-4 (Blood), 72 h
Protocol: as §1, §2, §3

[14] = tested on: A172; conditions: Homo sapiens, A 172; A172 (Brain), 72 h
Protocol: as §1, §2, §3

[15] = tested on: U-266; conditions: Homo sapiens; U-266 (Blood), 72 h
Protocol: as §1, §2, §3

[16] = tested on: SU-DHL-5; conditions: Homo sapiens; SU-DHL-5 (Blood), 72 h
Protocol: as §1, §2, §3

[17] = tested on: SK-OV3; conditions: Homo sapiens, SK-OV-3; SK-OV3 (Ovary), 72 h
Protocol: as §1, §2, §3

[18] = tested on: MOLM-13; conditions: Homo sapiens; MOLM-13 (Blood), 72 h
Protocol: as §1, §2, §3

[19] = tested on: LP-1; conditions: Homo sapiens; LP-1 (Blood), 72 h
Protocol: as §1, §2, §3

[20] = tested on: P31/FUJ; conditions: Homo sapiens; P31/FUJ (Blood), 72 h
Protocol: as §1, §2, §3

[21] = tested on: J82; conditions: Homo sapiens; J82 (Bladder), 72 h
Protocol: as §1, §2, §3

[22] = tested on: SNU-1; conditions: Homo sapiens, SNU1; SNU-1 (Stomach), 72 h
Protocol: as §1, §2, §3

[23] = tested on: A427; conditions: Homo sapiens, A-427; A427 (Lung), 72 h
Protocol: as §1, §2, §3

[24] = tested on: A375; conditions: Homo sapiens, A-375; A375 (Skin), 72 h
Protocol: as §1, §2, §3

[25] = tested on: KG-1 a; conditions: Homo sapiens; KG-1 a (Blood), 72 h
Protocol: as §1, §2, §3

[26] = tested on: HCC202; conditions: HCC202 (Breast), 72 h
Protocol: as §1, §2, §3

[27] = tested on: SW948; conditions: Homo sapiens; SW948 (Colon), 72 h
Protocol: as §1, §2, §3

[28] = tested on: BEN; conditions: BEN (Lung), 72 h
Protocol: as §1, §2, §3

[29] = tested on: A549; conditions: Homo sapiens; A549 (Lung), 72 h
Protocol: as §1, §2, §3

[30] = tested on: A498; conditions: Homo sapiens; A498 (Kidney), 72 h
Protocol: as §1, §2, §3

[31] = tested on: Caki-1; conditions: Homo sapiens; Caki-1 (Kidney), 72 h
Protocol: as §1, §2, §3

[32] = tested on: NCI-H838; conditions: Homo sapiens; NCI-H838 (Lung), 72 h
Protocol: as §1, §2, §3

[33] = tested on: NCI-H1563; conditions: Homo sapiens; NCI-H1563 (Lung), 72 h
Protocol: as §1, §2, §3

[34] = tested on: H1299; conditions: Homo sapiens, NCI-H1299; H1299 (Lung), 72 h
Protocol: as §1, §2, §3

For `C#C[C@]1(CO)O[C@@H](n2cnc3c(=O)[nH]c(N)nc32)C[C@@H]1O` [compound 13], the IC50 [1] was 7.53 µM, the IC50 [2] was 2.21 µM and the IC50 [3] was > 10 µM. For the same compound, the IC50 [4] was 8.21 µM, the IC50 [5] was 1.17 µM and the IC50 [6] was > 10 µM. For the same compound, the IC50 [7] was 4.58 µM, the IC50 [8] was > 10 µM and the IC50 [9] was 2.45 µM. For the same compound, the IC50 [10] was > 10 µM, the IC50 [11] was > 10 µM and the IC50 [12] was > 10 µM. For the same compound, the IC50 [13] was 0.51 µM, the IC50 [14] was > 10 µM and the IC50 [15] was > 10 µM. For the same compound, the IC50 [16] was 3.74 µM, the IC50 [17] was 4 µM and the IC50 [18] was 0.46 µM. The IC50 [19] was 3.15 µM, the IC50 [20] was 0.4 µM and the IC50 [21] was 5.73 µM. The IC50 [22] was 2.89 µM, the IC50 [23] was 0.55 µM and the IC50 [24] was 2.37 µM. The IC50 [25] was 5.86 µM, the IC50 [26] was > 10 µM and the IC50 [27] was 5.02 µM. The IC50 [28] was > 10 µM, the IC50 [29] was > 10 µM and the IC50 [30] was > 10 µM. For the same compound, the IC50 [31] was 9.76 µM, the IC50 [32] was > 10 µM and the IC50 [33] was > 10 µM. For the same compound, the IC50 [34] was 7.68 µM.
